Reference: patent US7615643B2 (SmithKline Beecham Corporation, priority 2006, dated 2009)
Where a name gives a salt, the structure may show the parent alone.

Molecular target: T1, PLK1 (Homo sapiens, UniProt P53350)
T1 construct: PLK kinase domain (amino acids 21-346 preceded by MKKGHHHHHHD); made in house; host or cells: baculovirus infected T. ni cells
Assay: Assay for inhibition of PLK1 (SPA kinase assay)
Format: biochemical
Settings: 1 μM ATP, 2 nM PLK1 kinase domain, read-out: PLK1 pIC50 (converted)
Experimental: I. Assay for Inhibition of PLK1
A. Preparation of 6× N-terminal His-tagged PLK Kinase Domain
6× N-terminal His-tagged PLK kinase domain (amino acids 21-346 preceded by MKKGHHHHHHD) SEQ ID: No. 1. was prepared from baculovirus infected T. ni cells under polyhedrin promoter control. All procedures were performed at 4° C. Cells were lysed In 50 mM HEPES, 200 mM NaCl, 50 mM imidazole, 5% glycerol; pH 7.5. The homogenate was centrifuged at 14K rpm in a SLA-1500 rotor for 1 hr and the supernatant filtered through a 1.2 micron filter. The supernatant was loaded onto a Nickel chelating Sepharose (Amersham Pharmacia) column and washed with lysis buffer. Protein was eluted using 20%, 30% and 100% buffer B steps where buffer B was 50 mM HEPES, 200 mM NaCl, 300 mM imidazole, 5% glycerol; pH 7.5. Fractions containing PLK were determined by SDS-PAGE. Fractions containing PLK were diluted five-fold with 50 mM HEPES, 1 mM DTT, 5% glycerol; pH 7.5, then loaded on an SP Sepharose (Amersham Pharmacia) column. After washing the column with 50 mM HEPES, 1 mM DTT, 5% glycerol; pH 7.5, PLK was step eluted with 50 mM HEPES, 1 mM DTT, 500 mM NaCl; 5% glycerol; pH 7.5. PLK was concentrated using a 10 kDa molecular weight cutoff membrane and then loaded onto a Superdex 200 gel filtration (Amersham Pharmacia) column equilibrated in 25 mM HEPES, 1 mM DTT, 500 mM NaCl, 5% glycerol; pH 7.5. Fractions containing PLK were determined by SDS-PAGE. PLK was pooled, aliquoted and stored at −80° C. Samples were quality controlled using mass spectrometry, N-terminal sequencing and amino acid analysis.
B. Enzyme Activity +/− Inhibitors was Determined as Follows:
All measurements were obtained under conditions where signal production increased linearly with time and enzyme. Test compounds were added to white 384-well assay plates (0.1 μL for 10 μL and some 20 μL assays, 1 μL for some 20 μL assays) at variable known concentrations in 100% DMSO. DMSO (1-5% final, as appropriate) and EDTA (65 mM in reaction) were used as controls. Reaction Mix was prepared as follows at 22° C.: • 25 mM HEPES, pH 7.2 • 15 mM MgCl2 • 1 μM ATP • 0.05 μCi/well ^33P-γ ATP (10 Ci/mMol) • 1 μM substrate peptide (Biotin-Ahx-SFNDTLDFD) SEQ ID:No. 2. • 0.15 mg/mL BSA • 1 mM DTT • 2 nM PLK1 kinase domain (added last)
Reaction Mix (10 or 20 μL) was quickly added to each well immediately following addition of enzyme via automated liquid handlers and incubated 1-1.5 h at 22° C. The 20 μL enzymatic reactions were stopped with 50 μL of stop mix (50 mM EDTA, 4.0 mg/mL Streptavidin SPA beads in Standard Dulbecco's PBS (without Mg^2+ and Ca^2+), 50 μM ATP) per well. The 10 μL reactions were stopped with 10 μL of stop mix (50 mM EDTA, 3.0 mg/mL Streptavidin-coupled SPA imaging Beads (“LeadSeeker”) in Standard Dulbecco's PBS (without Mg^2+ and Ca^2+), 50 μM ATP) per well. Plates were sealed with clear plastic seals, spun at 500×g for 1 min or settled overnight, and counted in Packard TopCount for 30 seconds/well (regular SPA) or imaged using a Viewlux imager (LeadSeeker SPA). Signal above background (EDTA controls) was converted to percent Inhibition relative to that obtained in control (DMSO-only) wells.

T1 sequence (P53350 21-346): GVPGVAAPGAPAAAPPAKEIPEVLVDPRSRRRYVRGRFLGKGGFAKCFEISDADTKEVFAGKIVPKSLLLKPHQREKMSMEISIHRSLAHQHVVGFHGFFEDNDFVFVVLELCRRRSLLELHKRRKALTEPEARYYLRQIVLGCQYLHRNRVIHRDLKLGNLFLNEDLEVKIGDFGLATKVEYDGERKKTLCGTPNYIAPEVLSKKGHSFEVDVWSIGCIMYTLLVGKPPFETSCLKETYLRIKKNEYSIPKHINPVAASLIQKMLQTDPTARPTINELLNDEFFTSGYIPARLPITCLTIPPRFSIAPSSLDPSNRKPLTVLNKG

| SMILES | IC50 [nM] |
| --- | --- |
| C[C@@H](Oc1cc(-n2cnc3cc(-c4cnn(C)c4)ccc32)sc1C(N)=O)c1ccc(F)c(OC2CCN(CCF)CC2)c1Cl [Example 35, 3-{[(1R)-1-(2-Chloro-4-fluoro-3-{[1-(2-fluoroethyl)-4-piperidinyl]oxy}phenyl)ethyl]oxy}-5-[5-(1-methyl-1H-pyrazol-4-yl)-1H-benzimidazol-1-yl]-2-thiophenecarboxamide] | < 100 |
| C[C@@H](Oc1cc(-n2cnc3cc(-c4cnn(C)c4)ccc32)sc1C(N)=O)c1ccc(F)c(OC2CCN(CCS(C)(=O)=O)CC2)c1Cl [Example 36, 3-({(1R)-1-[2-Chloro-4-fluoro-3-({1-[2-(methylsulfonyl)ethyl]-4-piperidinyl}oxy)phenyl]ethyl}oxy)-5-[5-(1-methyl-1H-pyrazol-4-yl)-1H-benzimidazol-1-yl]-2-thiophenecarboxamide] | < 100 |
| C[C@@H](Oc1cc(-n2cnc3cc(-c4cc[n+]([O-])cc4)ccc32)sc1C(N)=O)c1cccc(OC2CCNCC2)c1Cl [Example 37, 3-({(1R)-1-[2-Chloro-3-(4-piperidinyloxy)phenyl]ethyl}oxy)-5-[5-(1-oxido-4-pyridinyl)-1H-benzimidazol-1-yl]-2-thiophenecarboxamide] | < 100 |
| C[C@@H](Oc1cc(-n2cnc3cc(-c4cnn(C)c4)ccc32)sc1C(N)=O)c1c(F)ccc(OC2CCN(C)CC2)c1Cl [Example 38, 3-[((1R)-1-{2-Chloro-6-fluoro-3-[(1-methyl-4-piperidinyl)oxy]phenyl}ethyl)oxy]-5-[5-(1-methyl-1H-pyrazol-4-yl)-1H-benzimidazol-1-yl]-2-thiophenecarboxamide] | < 100 |
| COc1cc2ncn(-c3cc(O[C@H](C)c4cccc(OCC5CCNCC5)c4Cl)c(C(N)=O)s3)c2cc1OC [Example 40, 5-[5.6-Bis(methyloxy)-1H-benzimidazol-1-yl]-3-[((1R)-1-{2-chloro-3-[(4-piperidinylmethyl)oxy]phenyl}ethyl)oxy]-2-thiophenecarboxamide] | < 100 |
| COc1cc2ncn(-c3cc(O[C@H](C)c4cccc(OCC5CCN(C)CC5)c4Cl)c(C(N)=O)s3)c2cc1OC [Example 41, 5-[5,6-Bis(methyloxy)-1H-benzimidazol-1-yl]-3-{[(1R)-1-(2-chloro-3-{[(1-methyl-4-piperidinyl)methyl]oxy}phenyl)ethyl]oxy}-2-thiophenecarboxamide] | < 100 |
| COc1cc2ncn(-c3cc(O[C@H](C)c4cccc(OCCN5CCN(C)CC5)c4Cl)c(C(N)=O)s3)c2cc1OC [Example 42, 5-[5,6-Bis(methyloxy)-1H-benzimidazol-1-yl]-3-{[(1R)-1-(2-chloro-3-{[2-(4-methyl-1-piperazinyl)ethyl]oxy}phenyl)ethyl]oxy}-2-thiophenecarboxamide] | < 100 |
| C[C@@H](Oc1cc(-n2cnc3cc(-c4cnn(C)c4)ccc32)sc1C(N)=O)c1cccc(OCC2CCN(C)CC2)c1Cl [Example 45, 3-{[(1R)-1-(2-Chloro--3-{[(1-methyl-4-piperidinyl)methyl]oxy}phenyl)ethyl]oxy}-5-[5-(1-methyl-1H-pyrazol-4-yl)-1H-benzimidazol-1-yl]-2-thiopnenecarboxamide] | < 100 |
| C[C@@H](Oc1cc(-n2cnc3cc(-c4cnn(C)c4)ccc32)sc1C(N)=O)c1cccc(OC2CCNCC2)c1Cl [Example 47, 3-({(1R)-1-[2-Chloro-3-(4-piperidinyloxy)phenyl]ethyl}oxy)-5-[5-(1-methyl-1H-pyrazol-4-yl)-1H-benzimidazol-1-yl]-2-thiophenecarboxamide] | < 100 |
| C[C@@H](Oc1cc(-n2cnc3cc(-c4cnn(C)c4)ccc32)sc1C(N)=O)c1cccc(OC2CCN(C)CC2)c1Cl [Example 48, 3-[((1R)-1-{2-Chloro-3-[(1-methyl-4-piperidinyl)oxy]phenyl}ethyl)oxy]-5-[5-(1-methyl-1H-pyrazol-4-yl)-1H-benzimidazol-1-yl]-2-thiophenecarboxamide] | < 100 |
| Cc1cc(-c2ccc3c(c2)ncn3-c2cc(O[C@H](C)c3cccc(OC4CCN(C)CC4)c3Cl)c(C(N)=O)s2)ccn1 [Example 50, 3-[((1R)-1-{2-Chloro-3-[(1-methyl-4-piperidinyl)oxy]phenyl}ethyl)oxy]-5-[5-(2-methyl-4-pyridinyl)-1H-benzimidazol-1-yl]-2-thiophenecarboxamide] | < 100 |
| C[C@@H](Oc1cc(-n2cnc3cc(Br)ccc32)sc1C(N)=O)c1cccc(OC2CCN(C)CC2)c1Cl [Example 51, 5-(5-Bromo-1H-benzimidazol-1-yl)-3-[((1R)-1-{2-chloro-3-[(1-methyl-4-piperidinyl)oxy]phenyl}ethyl)oxy]-2-thiophenecarboxamide] | < 100 |
| C[C@@H](Oc1cc(-n2cnc3ccc(Cl)cc32)sc1C(N)=O)c1cccc(OC2CCNCC2)c1Cl [Example 52, 5-(6-Chloro-1H-benzimidazol-1-yl)-3-({(1R)-1-[2-chloro-3-(4-piperidinyloxy)phenyl]ethyl}oxy)-2-thiophenecarboxamide] | < 100 |
| C[C@@H](Oc1cc(-n2cnc3ccc(CS(C)(=O)=O)cc32)sc1C(N)=O)c1cccc(OC2CCNCC2)c1Cl [Example 54, 3-({(1R)-1-[2-Chloro-3-(4-piperidinyloxy)phenyl]ethyl}oxy)-5-{6-[(methylsulfonyl)methyl]-1H-benzimidazol-1-yl}-2-thiophenecarboxamide] | < 100 |

Now from value to compound:

| IC50 [nM] | SMILES |
| --- | --- |
| < 100 | COc1cc2ncn(-c3cc(O[C@H](C)c4cccc(OCC5CCN(C(=O)OC(C)(C)C)CC5)c4Cl)c(C(N)=O)s3)c2cc1OC [Example 39, 1,1-Dimethylethyl 4-[({3-[(1R)-1-({2-(aminocarbonyl)-5-[5,6-bis(methyloxy)-1H-benzimidazol-1-yl]-3-thienyl}oxy)ethyl]-2-chlorophenyl}oxy)methyl]-1-piperidinecarboxylate] |
| 100 to 1000 | C[C@@H](Oc1cc(-n2cnc3cc(-c4cnn(C)c4)ccc32)sc1C(N)=O)c1cccc(OCC2CCN(C(=O)OC(C)(C)C)CC2)c1Cl [Example 43, 1,1-Dimethylethyl 4-[({3-[(1R)-1-({2-(aminocarbonyl)-5-[5-(1-methyl-1H-pyrazol-4-yl)-1H-benzimidazol-1-yl]-3-thienyl}oxy)ethyl]-2-chlorophenyl}oxy)methyl]-1-piperidinecarboxylate] |
| < 100 | C[C@@H](Oc1cc(-n2cnc3cc(-c4cnn(C)c4)ccc32)sc1C(N)=O)c1cccc(OCC2CCNCC2)c1Cl [Example 44, 3-[((1R)-1-{2-Chloro-3-[(4-piperidinylmethyl)oxy]phenyl}ethyl)oxy]-5-[5-(1-methyl-1H-pyrazol-4-yl)-1H-benzimidazol-1-yl]-2-thiophenecarboxamide trifluoroacetate] |
| < 100 | C[C@@H](Oc1cc(-n2cnc3cc(-c4cnn(C)c4)ccc32)sc1C(N)=O)c1cccc(OC2CCN(C(=O)OC(C)(C)C)CC2)c1Cl [Example 46, 1,1-Dimethylethyl 4-({3-[(1R)-1-({2-(aminocarbonyl)-5-[5-(1-methyl-1H-pyrazol-4-yl)-1H-benzimidazol-1-yl]-3-thienyl}oxy)ethyl]-2-chlorophenyl}oxy)-1-piperidinecarboxylate] |
| < 100 | Cc1cc(-c2ccc3c(c2)ncn3-c2cc(O[C@H](C)c3cccc(OC4CCNCC4)c3Cl)c(C(N)=O)s2)ccn1 [Example 49, 3-({(1R)-1-[2-Chloro-3-(4-piperidinyloxy)phenyl]ethyl}oxy)-5-[5-(2-methyl-4-pyridinyl)-1H-benzimidazol-1-yl]-2-thiophenecarboxamide] |
| < 100 | C[C@@H](Oc1cc(-n2cnc3ccc(Cl)cc32)sc1C(N)=O)c1cccc(OC2CCN(C)CC2)c1Cl [Example 53] |
